In paper PMC4867230 (DNA repair, 2016):

What was measured:
Assay in all cases: kinetic fluorescence endonuclease assay, purified enzyme
Format in all cases: biochemical
[1] = molecular target: T1, apurinic/apyrimidinic endonuclease 1 (APE1) (Homo sapiens, UniProt P27695)
R177A APE1 = R177A APE1 (Homo sapiens, UniProt P27695, R177A)
[2] = molecular target: T1, apurinic/apyrimidinic endonuclease 1 (APE1); remark: listed apart in the source

T1 sequence (P27695 whole entry): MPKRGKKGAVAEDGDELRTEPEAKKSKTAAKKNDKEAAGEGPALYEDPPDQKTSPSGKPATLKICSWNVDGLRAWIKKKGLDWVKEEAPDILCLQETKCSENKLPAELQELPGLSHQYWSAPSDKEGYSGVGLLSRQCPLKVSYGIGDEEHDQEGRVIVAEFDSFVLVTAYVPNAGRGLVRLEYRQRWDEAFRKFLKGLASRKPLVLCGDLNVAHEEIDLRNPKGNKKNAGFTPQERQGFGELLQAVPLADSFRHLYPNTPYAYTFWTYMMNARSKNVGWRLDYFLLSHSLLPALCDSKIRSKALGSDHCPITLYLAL
Chain of R177A APE1 (P27695 whole entry R177A): as the sequence (P27695 whole entry) above, with R177A counted along it

Structure (SMILES)	IC50 [1] [µM]	EC50 (R177A APE1) [µM]	EC50 [2] [µM]
O=C(NCCO)c1cccnc1 [N-(2-hydroxyethyl)nicotinamide]	65		
O=C(NCCO[N+](=O)[O-])c1cccnc1 [nicorandil]		2.2	0.82
